Source: patent US20100093696A1, “2-AMINO PYRIMIDINE COMPOUNDS” (Pfizer Inc., priority 2007, published 2010)
Where a name gives a salt, the structure may show the parent alone.

Biological target: HSP-90 (Homo sapiens, UniProt P07900)
Experiment: HSP-90 SPA (scintillation proximity assay) competition binding assay, tritiated Compound A radioligand (G2)
Details: read-out: (G2): % inhibition

In the case of `CCOC(=O)N1Cc2nc(N)nc(Oc3cc(C)c(Cl)c(C)c3)c2C1` [Example 25, ethyl 2-amino-4-(4-chloro-35-dimethylphenoxy)-5,7-dihydro-6H-pyrrolo[34-d]pyrimidine-6-carboxylate hydrochloride], the inhibition at 10 µM is reported as 0%.

Work on `CCOC(=O)N1Cc2nc(N)nc(Oc3ccc(Cl)cc3Br)c2C1` [Example 23, ethyl 2-amino-4-(2-bromo-4-chlorophenoxy)-5,7-dihydro-6H-pyrrolo[34-d]pyrimidine-6-carboxylate] yielded an inhibition at 10 µM of 0%.

`CCOC(=O)N1Cc2nc(N)nc(Oc3ccc(Cl)cc3OC)c2C1` [Example 27, ethyl 2-amino-4-(4-chloro-2-methoxyphenoxy)-5,7-dihydro-6H-pyrrolo[3,4-d]pyrimidine-6-carboxylate] gave an inhibition at 10 µM of 0%.

Work on `CCOC(=O)N1Cc2nc(N)nc(-n3ccc4ccc(F)cc43)c2C1` [Example 46, ethyl 2-amino-4-(6-fluoro-1H-indol-1-yl)-5,7-dihydro-6H-pyrrolo[3,4-d]pyrimidine-6-carboxylate] yielded an inhibition at 10 µM of 0%.
